This assay addresses T1, glucocorticoid receptor (Homo sapiens, UniProt P04150).
T1 construct: host or cells: A549 human lung epithelial cells (sonicated cell extract)
T1 sequence (P04150 1-777): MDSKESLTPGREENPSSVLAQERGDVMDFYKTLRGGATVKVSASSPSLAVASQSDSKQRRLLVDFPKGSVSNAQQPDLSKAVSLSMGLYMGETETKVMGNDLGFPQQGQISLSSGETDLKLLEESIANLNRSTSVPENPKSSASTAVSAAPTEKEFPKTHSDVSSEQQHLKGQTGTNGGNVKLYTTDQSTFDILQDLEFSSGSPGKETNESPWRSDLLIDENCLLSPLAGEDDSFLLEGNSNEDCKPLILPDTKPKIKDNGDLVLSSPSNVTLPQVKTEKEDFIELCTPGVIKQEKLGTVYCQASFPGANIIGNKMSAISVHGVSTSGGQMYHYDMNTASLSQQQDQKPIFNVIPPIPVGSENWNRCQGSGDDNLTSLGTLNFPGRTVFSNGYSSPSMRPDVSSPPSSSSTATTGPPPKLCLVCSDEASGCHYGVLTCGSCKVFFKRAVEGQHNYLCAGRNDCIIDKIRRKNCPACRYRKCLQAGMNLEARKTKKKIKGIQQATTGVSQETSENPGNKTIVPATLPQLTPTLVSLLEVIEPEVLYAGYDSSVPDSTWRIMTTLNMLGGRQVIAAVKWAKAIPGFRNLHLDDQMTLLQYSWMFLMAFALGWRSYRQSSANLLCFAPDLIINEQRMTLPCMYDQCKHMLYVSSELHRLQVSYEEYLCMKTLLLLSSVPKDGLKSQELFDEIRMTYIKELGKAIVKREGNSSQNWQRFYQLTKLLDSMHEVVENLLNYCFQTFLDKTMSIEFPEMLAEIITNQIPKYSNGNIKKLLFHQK
Description: Glucocorticoid Receptor Binding Assay ([3H]-dexamethasone displacement, A549 cell extract). Particulars: A549 human lung epithelial cell extract, 1.86 nM [3H]-dexamethasone; read-out: GR Ki. As to the method: Glucocorticoid Receptor Binding Assay:
A549 human lung epithelial cells (ATCC) are grown at a scale where gram quantity cell pellets are obtained. Harvested cell pellets are washed twice in cold phosphate buffered saline, centrifuged, and resuspended in cold assay binding buffer. The assay binding buffer consists of 10% glycerol, 50 mM Tris-HCl (pH7.2), 75 mM sodium chloride, 1.5 mM magnesium chloride, 1.5 mM EDTA, and 10 mM sodium molybdate. Cell suspensions were lysed via sonication, centrifuged, and the “extract” supernatant is snap frozen and stored at −80C. until needed.
GR binding assays are performed in a final volume of 140 ul containing 50-200 ug of A549 cell extract and 1.86 nM [^3H]-dexamethasone (Amersham) plus varying concentrations of test compound or vehicle. Briefly, assays are prepared at RT in 96-well Fisher 3356 plates, each well containing 100 ul of A549 cell extract, 20 ul of [^3H]-dexamethasone, and 20 ul of test compound/vehicle. Incubations are carried out at 4 degrees celsius for 16 hours. After incubation, 70 ul of 3× dextran-coated charcoal solution is added to each reaction, mixed, and incubated for 8 minutes at RT. 3×-dextran-coated charcoal solution consists of 250 ml assay binding buffer, 3.75 g Norit A charcoal (Sigma), and 1.25 g dextran T-70 (Amersham). Charcoal/unbound radioligand complexes are removed by centrifugation of the plate and 140 ul of supernatant from each well is transferred to another 96 well Optiplate (Packard Instruments). 200 ul of Microscint-20 scinillant (Packard Instruments) is added to each well and amount of receptor bound radioligand is determined using Packard Instruments TopCount instrument.
IC50 values, defined as the concentration of test compound required to decrease [^3H]-dexamethasone binding by 50%, are then determined. Ki values for each respective test compound can then be calculated by application of the Cheng-Prusoff equation as described in Cheng et al., Relationship Between The Inhibition Constant (Ki) and The Concentration of Inhibitor Which Causes 50% Inhibition (IC50) of an Enzymatic Reaction, Biochem. Pharmacol., 22: 3099-31088; (1973).
Consider `Cc1cc(C2(c3cc(C)c(O)c(C)c3)C(=O)N(c3ccncc3)c3ccccc32)cc(C)c1O` [Example 136, 3,3-Bis-(4-hydroxy-3,5-dimethyl-phenyl)-1-pyridin-4-yl-1,3-dihydro-indol-2-one], for which the Ki (as a rule, the dissociation constant of the complex between target and ligand, obtained from inhibition or displacement) was no more than 500 nM. Take `CCOCCN1C(=O)C(c2cc(C)c(O)c(C)c2)(c2cc(C)c(O)c(C)c2)c2ccccc21` [Example 80, 1-(2-Ethoxy-ethyl)-3,3-bis-(4-hydroxy-3,5-dimethyl-phenyl)-1,3-dihydro-indol-2-one]: the Ki is no more than 500 nM. Turning to `Cc1ccc2c(c1)C(c1cc(C)c(O)c(C)c1)(c1cc(C)c(O)c(C)c1)C(=O)N2Cc1ccccc1Cl` [Example 22, 1-(2-Chloro-benzyl)-3,3-bis-(4-hydroxy-3,5-dimethyl-phenyl)-5-methyl-1,3-dihydro-indol-2-one], the Ki was no more than 500 nM. On to `Cc1cc(C2(c3cc(C)c(O)c(C)c3)C(=O)N(Cc3c(F)cccc3F)c3ccccc32)cc(C)c1O` [Example 115, 1-(2,6-Difluoro-benzyl)-3,3-bis-(4-hydroxy-3,5-dimethyl-phenyl)-1,3-dihydro-indol-2-one], for which the Ki is no more than 500 nM. To `CCc1nc(CN2C(=O)C(c3cc(C)c(O)c(C)c3)(c3cc(C)c(O)c(C)c3)c3ccccc32)cs1` [Example 90, 1-(2-Ethyl-thiazol-4-ylmethyl)-3,3-bis-(4-hydroxy-3,5-dimethyl-phenyl)-1,3-dihydro-indol-2-one] belongs no more than 1000 nM; to `Cc1cc(C2(c3cc(C)c(O)c(C)c3)C(=O)N(Cc3ccccc3Cl)c3ccccc32)cc(C)c1N` (stereo not shown) [Example 35, 3-(4-Amino-3,5-dimethyl-phenyl)-1-(2-chloro-benzyl)-3-(4-hydroxy-3,5-dimethyl-phenyl)-1,3-dihydro-indol-2-one], no more than 500 nM; to `Cc1cc(C2(c3cc(C)c(O)c(C)c3)C(=O)N(Cc3noc(-c4ccco4)n3)c3ccccc32)cc(C)c1O` [Example 87, 1-(5-Furan-2-yl-[1,2,4]oxadiazol-3-ylmethyl)-3,3-bis-(4-hydroxy-3,5-dimethyl-phenyl)-1,3-dihydro-indol-2-one], no more than 500 nM. As to `Cc1cc(C2(c3cc(C)c(O)c(C)c3)C(=O)N(Cc3c(Cl)cccc3Cl)c3ccccc32)cc(C)c1O` [Example 113, 1-(2,6-Dichloro-benzyl)-3,3-bis-(4-hydroxy-3,5-dimethyl-phenyl)-1,3-dihydro-indol-2-one], the Ki is no more than 500 nM. `COc1cccc(CN2C(=O)C(c3cc(C)c(O)c(C)c3)(c3cc(C)c(O)c(C)c3)c3ccccc32)c1` [Example 56, 3,3-Bis-(4-hydroxy-3,5-dimethyl-phenyl)-1-(3-methoxy-benzyl)-1,3-dihydro-indol-2-one]: the Ki was no more than 500 nM.

Take `Cc1cc(C2(c3cc(C)c(O)c(C)c3)C(=O)N(CCC3CCCCC3)c3ccccc32)cc(C)c1O` [Example 110, 1-(2-Cyclohexyl-ethyl)-3,3-bis-(4-hydroxy-3,5-dimethyl-phenyl)-1,3-dihydro-indol-2-one]: the Ki is no more than 500 nM.

On to `CCOC(=O)CN1C(=O)C(c2cc(C)c(O)c(C)c2)(c2cc(C)c(O)c(C)c2)c2ccccc21` [Example 109, [3,3-Bis-(4-hydroxy-3,5-dimethyl-phenyl)-2-oxo-2,3-dihydro-indol-1-yl]-acetic acid ethyl ester], for which the Ki was no more than 500 nM.

Consider `C#CCN1C(=O)C(c2cc(C)c(O)c(C)c2)(c2cc(C)c(O)c(C)c2)c2ccccc21` [Example 101, 3,3-Bis-(4-hydroxy-3,5-dimethyl-phenyl)-1-prop-2-ynyl-1,3-dihydro-indol-2-one], for which the Ki was no more than 500 nM.

Turning to `Cc1cc(C2(c3cc(C)c(O)c(C)c3)C(=O)N(Cc3ccc(Cl)cc3F)c3ccccc32)cc(C)c1O` [Example 83, 1-(4-Chloro-2-fluoro-benzyl)-3,3-bis-(4-hydroxy-3,5-dimethyl-phenyl)-1,3-dihydro-indol-2-one], the Ki is no more than 500 nM. `COC(=O)c1cccc(-c2noc(CN3C(=O)C(c4cc(C)c(O)c(C)c4)(c4cc(C)c(O)c(C)c4)c4ccccc43)n2)c1` [Example 141, 3-{5-[3,3-Bis-(4-hydroxy-3,5-dimethyl-phenyl)-2-oxo-2,3-dihydro-indol-1-ylmethyl]-[1,2,4]oxadiazol-3-yl}-benzoic acid methyl ester]: the Ki was no more than 500 nM.

In the case of `Cc1ccc2c(c1)C(c1cc(C)c(O)c(C)c1)(c1cc(C)c(O)c(C)c1)C(=O)N2Cc1csc(-c2ccccc2)n1` [Example 92, 3,3-Bis-(4-hydroxy-3,5-dimethyl-phenyl)-5-methyl-1-(2-phenyl-thiazol-4-ylmethyl)-1,3-dihydro-indol-2-one], the Ki was no more than 500 nM. Consider `CCCCCN1C(=O)C(c2cc(C)c(O)c(C)c2)(c2cc(C)c(O)c(C)c2)c2ccccc21` [Example 77, 3,3-Bis-(4-hydroxy-3,5-dimethyl-phenyl)-1-pentyl-1,3-dihydro-indol-2-one], for which the Ki is no more than 500 nM. With `Cc1cc(C2(c3cc(C)c(O)c(C)c3)C(=O)N(Cc3ccc(OC(F)(F)F)cc3)c3ccccc32)cc(C)c1O` [Example 67, 3,3-Bis-(4-hydroxy-3,5-dimethyl-phenyl)-1-(4-trifluoromethoxy-benzyl)-1,3-dihydro-indol-2-one], the Ki was no more than 500 nM. Then `Cc1ccccc1N1C(=O)C(c2cc(C)c(O)c(C)c2)(c2cc(C)c(O)c(C)c2)c2ccccc21` [Example 132, 3,3-Bis-(4-hydroxy-3,5-dimethyl-phenyl)-1-o-tolyl-1,3-dihydro-indo 1-2-one], with no more than 500 nM. Then `CCOc1cccc(N2C(=O)C(c3cc(C)c(O)c(C)c3)(c3cc(C)c(O)c(C)c3)c3ccccc32)c1` [Example 137, 1-(3-Ethoxy-phenyl)-3,3-bis-(4-hydroxy-3,5-dimethyl-phenyl)-1,3-dihydro-indol-2-one], with no more than 500 nM; and `O=C1N(Cc2ccccc2)c2ccccc2C1(c1cc(Cl)c(O)c(Cl)c1)c1cc(Cl)c(O)c(Cl)c1` [Example 14, 1-Benzyl-3,3-bis-(3,5-dichloro-4-hydroxy-phenyl)-1,3-dihydro-indol-2-one], with no more than 500 nM. For the molecule `Cc1cc(C2(c3cc(C)c(O)c(C)c3)C(=O)N(c3cccc(C(F)(F)F)c3)c3ccccc32)cc(C)c1O` [Example 127, 3,3-Bis-(4-hydroxy-3,5-dimethyl-phenyl)-1-(3-trifluoromethyl-phenyl)-1,3-dihydro-indol-2-one], the Ki was no more than 500 nM.

In the case of `Cc1cc(C2(c3cc(C)c(O)c(C)c3)C(=O)N(Cc3ccccc3Cl)c3ccccc32)cc(C)c1O` [Example 11, 1-(2-Chloro-benzyl)-3,3-bis-(4-hydroxy-3,5-dimethyl-phenyl)-1,3-dihydro-indol-2-one], the Ki is no more than 500 nM.

On to `Cc1cc(C2(c3cc(C)c(O)c(C)c3)C(=O)N(Cc3c(C)noc3C)c3ccccc32)cc(C)c1O` [Example 9, 1-(3,5-Dimethyl-isoxazol-4-ylmethyl)-3,3-bis-(4-hydroxy-3,5-dimethyl-phenyl)-1,3-dihydro-indol-2-one], for which the Ki was no more than 500 nM. Consider `Cc1cc(C2(c3cc(C)c(O)c(C)c3)C(=O)N(Cc3ccccc3F)c3ccccc32)cc(C)c1O` [Example 50, 1-(2-Fluoro-benzyl)-3,3-bis-(4-hydroxy-3,5-dimethyl-phenyl)-1,3-dihydro-indol-2-one], for which the Ki is no more than 500 nM. In the case of `Cc1cc(C2(c3cc(C)c(O)c(C)c3)C(=O)N(Cc3cccc(OC(F)(F)F)c3)c3ccccc32)cc(C)c1O` [Example 8, 3,3-Bis-(4-hydroxy-3,5-dimethyl-phenyl)-1-(3-trifluoromethoxy-benzyl)-1,3-dihydro-indol-2-one], the Ki was no more than 500 nM.

The record behind these values is patent US7250442B2, “Dihydroindol-2-one derivatives as steroid hormone nuclear receptor modulators” (Eli Lilly and Company, priority 2003, dated 2007).
